Values quoted from earlier work in US7989600B2, “Macrolide compounds containing biotin and photo-affinity group for macrolide target identification” (GlaxoSmithKline Istrazivacki Centar Zagreb D.O.O., priority 2005, dated 2011).

Tested on: α1-acid glycoprotein from serum
Settings: dialysis in combination HPLC methods; Castearena et al., J Chemother. 1995

binding to α1-acid glycoprotein from serum: specifically binds
Structure (SMILES): CC[C@H]1OC(=O)[C@H](C)[C@@H](O[C@H]2C[C@@](C)(OC)[C@@H](O)[C@H](C)O2)[C@H](C)[C@@H](O[C@@H]2O[C@H](C)C[C@H](N(C)C)[C@H]2O)[C@](C)(O)C[C@@H](C)CN(C)[C@H](C)[C@@H](O)[C@]1(C)O [azithromycin]
